Measurements: patent US20220390432A1, “METHODS OF CHARACTERIZING AND UTILIZING AGENT-CONDENSATE INTERACTIONS” (Whitehead Institute for Biomedical Research, priority 2019, published 2022)
“Also recorded” adds a separate entry of the source.

Key:
[1] = test system: MED1 genomic occupancy in HCT116 cells; test: MED1 ChIP-seq in HCT116 cells; type: cell-based, human; conditions: 50 μM cisplatin for 6 hours
HP1α = biological target: T1, HP1α (Homo sapiens, UniProt P45973); test: In vitro droplet assay, small molecule partitioning into HP1α condensates; type: binding
T1 construct: HP1α—full length, amino acids 1-191; 6xHis (N); made in house; host or cells: LOBSTR cells (E. coli)
Experimental: Recombinant BFP, GFP, or mCherry fusion proteins were concentrated and desalted to an appropriate protein concentration and 125 mM NaCl using Amicon Ultra centrifugal filters (30K MWCO, Millipore). Recombinant protein was added too. […] The protein solution was immediately loaded onto glass bottom 384 well plate (Cellvis P384-1.5H-N) and imaged with an Andor confocal microscope with a 150× objective. Unless indicated, images presented are of droplets settled on the glass coverslip.
Drug and small molecule concentrations used in the droplet experiments are as follows:
To analyze in vitro droplet experiments, custom Python scripts using the scikit-image package were written to identify droplets and characterize their size, shape and intensity. […] After segmentation, mean intensity for each droplet was calculated while excluding pixels near the phase interface, and background-corrected by subtracting intensity of dark images of droplet formation buffer only. Droplets identified in the channel of the fluorescent protein from ten independent fields of view were quantified for each experiment. The maximum intensity of signal within the droplets was calculated for each channel, the maximum intensity in the drug channel was termed “maximum drug intensity”. […]

T1 sequence (P45973 whole entry, the tested form may be a part): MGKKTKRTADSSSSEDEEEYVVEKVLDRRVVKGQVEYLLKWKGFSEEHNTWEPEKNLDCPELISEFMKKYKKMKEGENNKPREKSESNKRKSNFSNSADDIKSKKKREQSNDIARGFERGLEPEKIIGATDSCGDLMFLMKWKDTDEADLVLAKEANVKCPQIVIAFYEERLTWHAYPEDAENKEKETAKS

**Q.** With `N.N.[Cl][Pt][Cl]` [cisplatin] as the compound, how does the “MED1 ChIP-seq signal after cisplatin” value [1] read?
**A.** Its value is “preferential loss of MED1 ChIP-seq signal at super-enhancers; also recorded: reduced”.

**Q.** What about the “partitioning / incorporation into HP1α droplets” value (HP1α) of the same compound?
**A.** Its value is “freely diffuses”.
